# Laboratory results reported in patent US20260265246A1 (ICAHN SCHOOL OF MEDICINE AT MOUNT SINAI, priority 2021, published 2026).
# pEC50, pKi: −log10 of the molar value. Where two headings read alike, the source gives them in different places.
# What was measured:
# [1] = target: T1, 5HT2A receptor (Homo sapiens, UniProt P28223); experiment: cell-based; parameters: expressed in transfected cells; host or cells: HEK293T cells, transient co-transfection; settings: for EC50: 5HT2A β-Arr EC50 (nM); for Emax: HEK-293T; for pEC50: read-out: 5HT2A β-Arr EC50
# [2] = target: T1, 5HT2A receptor; experiment: biochemical; format: binding; parameters: expressed in transfected cells; crude membranes; settings: for Ki: 5HT2A Ki (nM); for pKi: read-out: 5HT2A Ki
# [3] = target: T1, 5HT2A receptor; experiment: cell-based; parameters: expressed in transfected cells; host or cells: HEK293T cells, transient co-transfection; settings: for Emax: HEK-293T
# [4] = BRET1 beta-arrestin2 recruitment, HEK293T
# [5] = BRET1 beta-arrestin2 recruitment, HEK293T, normalized to 5-HT, read-out: 5HT2A β-Arr Emax (%)
# [6] = secondary binding assay, Cheng-Prusoff
# [7] = BRET2 Gαq dissociation, HEK293T, read-out: 5HTA Gq EC50
# [8] = BRET2 Gαq dissociation, HEK293T, normalized to 5-HT, read-out: 5HTA Gq Emax (%)
# [9] = BRET1 beta-arrestin2 recruitment, HEK293T cells
# [10] = BRET1 beta-arrestin2 recruitment, HEK293T cells, normalized to 5-HT, read-out: 5HT2A β-Arr Emax (%)
# [11] = secondary radioligand binding, Ki from IC50 by Cheng-Prusoff
# [12] = BRET2 Gαq dissociation, HEK293T cells, read-out: 5HT2A Gq EC50
# [13] = BRET2 Gαq dissociation, HEK293T cells, normalized to 5-HT, read-out: 5HT2A Gq Emax (%)
# [14] = 5HT2A Gq EC50 (nM), BRET2 Gαq dissociation, HEK293T cells
# [15] = 5HTA Gq EC50 (nM), BRET2 Gαq dissociation, HEK293T
# T1 sequence (P28223 whole entry): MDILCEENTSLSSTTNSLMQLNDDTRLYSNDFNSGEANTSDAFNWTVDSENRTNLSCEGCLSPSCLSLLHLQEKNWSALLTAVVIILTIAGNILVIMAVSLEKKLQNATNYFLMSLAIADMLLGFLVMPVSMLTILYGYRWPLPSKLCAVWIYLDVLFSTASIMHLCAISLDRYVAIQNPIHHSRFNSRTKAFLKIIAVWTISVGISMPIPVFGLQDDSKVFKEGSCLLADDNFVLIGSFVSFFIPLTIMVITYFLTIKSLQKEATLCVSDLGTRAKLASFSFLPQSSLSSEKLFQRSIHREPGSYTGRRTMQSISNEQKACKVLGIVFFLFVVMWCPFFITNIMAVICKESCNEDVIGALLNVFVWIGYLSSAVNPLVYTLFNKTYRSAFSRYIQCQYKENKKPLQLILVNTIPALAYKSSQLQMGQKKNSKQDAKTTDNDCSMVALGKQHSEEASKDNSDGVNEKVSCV
SMILES,"EC50 [1, 4] [nM]","Emax [1, 5] [%]","Emax [1, 10] [%]","pEC50 [3, 12]","Emax [3, 13] [%]","EC50 [1, 9] [nM]","Ki [2, 11] [nM]",further results
"CN1CC=C(c2n[nH]c3c(Cl)cccc23)C1 [Example 207, 7-chloro-3-(1-methyl-2,5-dihydro-1H-pyrrol-3-yl)-1H-indazole]",129,47.8,–,–,–,–,–,"Ki [2, 6]: 203 nM; pEC50 [3, 7]: 7.29; Emax [3, 8]: 94.7%"
"CCN1CCC=C(c2c[nH]c3c(Cl)cccc23)C1 [Example 126, 7-chloro-3-(1-ethyl-1,2,5,6-tetrahydropyridin-3-yl)-1H-indole]",–,–,62.9,7.40,96.6,–,–,"pEC50 [1, 9]: 7.13; pKi [2, 11]: 7.37"
"COc1ccnc2[nH]cc(C3=CCCN(C)C3)c12 [Example 14, 4-methoxy-3-(1-methyl-1,2,5,6-tetrahydropyridin-3-yl)-1H-pyrrolo[2,3-b]pyridine]",–,–,32.2,7.14,67.1,–,–,"pEC50 [1, 9]: 7.13; pKi [2, 11]: 7.37"
"Fc1cccc2[nH]nc(C3=CCCNC3)c12 [Example 81, 4-fluoro-3-(1,2,5,6-tetrahydropyridin-3-yl)-1H-indazole]",–,–,75.7,7.58,92.3,211,348,–
"CCc1cccc2c(C3=CCCNC3)c[nH]c12 [Example 50, 7-ethyl-3-(1,2,5,6-tetrahydropyridin-3-yl)-1H-indole]",–,–,79.1,8.33,92.6,–,244,"pEC50 [1, 9]: 7.17"
"Clc1cccc2c(C3CCCNC3)n[nH]c12 (stereo not drawn) [Example 114, 7-chloro-3-(piperidin-3-yl)-1H-indazole]",–,–,–,–,–,468,1240,"Emax ([1]; read-out: 5HT2A β-Arr Emax (%), BRET1 beta-arrestin2 recruitment, HEK293T cells, normalized to 5-HT): 29.3%; EC50 [3, 14]: 290 nM; Emax ([3]; read-out: 5HT2A Gq Emax (%), BRET2 Gαq dissociation, HEK293T cells, normalized to 5-HT): 74.5%"
"Clc1ccc2[nH]cc(C3=CCCNC3)c2c1 [Example 22, 5-chloro-3-(1,2,5,6-tetrahydropyridin-3-yl)-1H-indole]",–,–,77.3,8.14,102,–,–,"pEC50 [1, 9]: 7.11; pKi [2, 11]: 7.35"
"Clc1cccc2c(C34CNCC3C4)c[nH]c12 (single isomer, unassigned) [Example 277, 3-(3-azabicyclo[3.1.0]hexan-1-yl)-7-chloro-1H-indole]",212,25.4,–,–,–,–,–,"pKi [2, 6]: 7.09; 5HTA Gq Emax (%) ([3]; BRET2 Gαq dissociation, HEK293T, normalized to 5-HT): 86.5%; pEC50 [3, 7]: 7.08"
"CN1CCC=C(c2n[nH]c3c(Cl)ccc(F)c23)C1 [Example 132, 7-chloro-4-fluoro-3-(1-methyl-1,2,5,6-tetrahydropyridin-3-yl)-1H-indazole]",–,50.9,–,–,–,–,–,"pEC50 [1, 4]: 7.03; pKi [2, 6]: 7.07; pEC50 [3, 7]: 7.62; Emax [3, 8]: 95.4%"
"COc1cnc2[nH]cc(C3=CCCNC3)c2c1 [Example 2, 5-methoxy-3-(1,2,5,6-tetrahydropyridin-3-yl)-1H-pyrrolo[2,3-b]pyridine]",–,–,61.6,–,73.7,1040,294,"EC50 [3, 14]: 135 nM"
"CCCN1CCC=C(c2c[nH]c3c(C#N)cccc23)C1 [Example 157, 3-(1-propyl-1,2,5,6-tetrahydropyridin-3-yl)-1H-indole-7-carbonitrile]",500,39.3,–,–,–,–,–,"Ki [2, 6]: 164 nM; pEC50 [3, 7]: 7.03; Emax [3, 8]: 78%"
"FC(F)CN1CCC=C(c2n[nH]c3c(Cl)cccc23)C1 [Example 153, 7-chloro-3-(1-(2,2-difluoroethyl)-1,2,5,6-tetrahydropyridin-3-yl)-1H-indazole]",1200,77.4,–,–,–,–,–,"Ki [2, 6]: 634 nM; EC50 [3, 15]: 1240 nM; Emax [3, 8]: 83.9%"
"Cc1ccnc2[nH]cc(C3=CCCNC3)c12 [Example 9, 4-methyl-3-(1,2,5,6-tetrahydropyridin-3-yl)-1H-pyrrolo[2,3-b]pyridine]",–,–,72.8,–,74.2,749,8510,"EC50 [3, 14]: 489 nM"
"Clc1cccc2c(C34CNCC3C4)c[nH]c12 (stereo not drawn) [Example 270, 3-(3-azabicyclo[3.1.0]hexan-1-yl)-7-chloro-1H-indole]",822,21.2,–,–,–,–,–,"Ki [2, 6]: 134 nM; pEC50 [3, 7]: 7.53; Emax [3, 8]: 93.8%"
"Cc1cccc2c(C3=CCCNC3)c[nH]c12 [Example 41, 7-methyl-3-(1,2,5,6-tetrahydropyridin-3-yl)-1H-indole]",–,–,83.2,–,92.6,1410,1380,"EC50 [3, 14]: 234 nM"
"Clc1cccc2c(C3=CCCN(C4CC4)C3)n[nH]c12 [Example 166, 7-chloro-3-(1-cyclopropyl-1,2,5,6-tetrahydropyridin-3-yl)-1H-indazole]",120,–,–,–,–,–,–,"Emax ([1]; read-out: 5HT2A β-Arr Emax (%), BRET1 beta-arrestin2 recruitment, HEK293T, normalized to 5-HT): 24.9%; Ki [2, 6]: 307 nM; EC50 [3, 15]: 47.1 nM; Emax ([3]; read-out: 5HTA Gq Emax (%), BRET2 Gαq dissociation, HEK293T, normalized to 5-HT): 64%"
"CN1CCC=C(c2c[nH]c3c(F)cccc23)C1 [Example 56, 7-fluoro-3-(1-methyl-1,2,5,6-tetrahydropyridin-3-yl)-1H-indole]",–,–,49.5,7.77,96.9,–,–,"pEC50 [1, 9]: 7.24; pKi [2, 11]: 7.22"
"N#Cc1cccc2[nH]nc(C3=CCCNC3)c12 [Example 82, 3-(1,2,5,6-tetrahydropyridin-3-yl)-1H-indazole-4-carbonitrile]",–,–,87.9,7.92,95.9,562,153,–
"CN1CCC=C(c2c[nH]c3nc(F)ccc23)C1 [Example 134, 6-fluoro-3-(1-methyl-1,2,5,6-tetrahydropyridin-3-yl)-1H-pyrrolo[2,3-b]pyridine]",1050,51.1,–,–,–,–,–,"Ki [2, 6]: 284 nM; EC50 [3, 15]: 140 nM; Emax [3, 8]: 87.4%"
"Fc1ccc2[nH]nc(C3=CCCNC3)c2c1 [Example 85, 5-fluoro-3-(1,2,5,6-tetrahydropyridin-3-yl)-1H-indazole]",–,–,96,8.55,88.3,–,–,"pEC50 [1, 9]: 7.16; pKi [2, 11]: 7.48"
"N#Cc1ccc2c(C3=CCCNC3)n[nH]c2c1 [Example 79, 3-(1,2,5,6-tetrahydropyridin-3-yl)-1H-indazole-6-carbonitrile]",–,–,82.1,–,48.6,1710,441,"EC50 [3, 14]: 874 nM"
"Fc1cccc2c(C3=CCCN(Cc4ccccc4)C3)c[nH]c12 [Example 73, 3-(1-benzyl-1,2,5,6-tetrahydropyridin-3-yl)-7-fluoro-1H-indole]",–,–,56.5,–,81.9,331,151,"EC50 [3, 14]: 116 nM"
"C=CCc1cccc2c(C3=CCCN(C)C3)c[nH]c12 [Example 257, 7-allyl-3-(1-methyl-1,2,5,6-tetrahydropyridin-3-yl)-1H-indole]",105,52.1,–,–,–,–,–,"pKi [2, 6]: 7.01; pEC50 [3, 7]: 7.35; Emax [3, 8]: 90.7%"
"COc1cccc2[nH]cc(C3=CCCNC3)c12 [Example 18, 4-methoxy-3-(1,2,5,6-tetrahydropyridin-3-yl)-1H-indole]",–,–,51.8,8.41,96.1,–,–,"pEC50 [1, 9]: 7.15; pKi [2, 11]: 7.30"
"Clc1cccc2c(-c3cncnc3)n[nH]c12 [Example 216, 7-chloro-3-(pyrimidin-5-yl)-1H-indazole]",729,53.8,–,–,–,–,–,"Ki [2, 6]: 4390 nM; EC50 [3, 15]: 27.5 nM; Emax [3, 8]: 85.1%"
"Cc1cccc2[nH]nc(C3=CCCN(C)C3)c12 [Example 97, 4-methyl-3-(1-methyl-1,2,5,6-tetrahydropyridin-3-yl)-1H-indazole]",–,–,64.6,7.09,69,605,786,–
"CN1CCC=C(c2n[nH]c3ccccc23)C1 [Example 46, 3-(1-methyl-1,2,5,6-tetrahydropyridin-3-yl)-1H-indazole]",–,–,21.9,8.48,62.6,115,–,"pKi [2, 11]: 7.06"
"CN1CCC=C(c2c[nH]c3nccc(-c4ccccc4)c23)C1 [Example 16, 3-(1-methyl-1,2,5,6-tetrahydropyridin-3-yl)-4-phenyl-1H-pyrrolo[2,3-b]pyridine]",–,–,49.6,–,–,2140,164,–
